From PubChem BioAssay (NCI)
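In this assay, cells in 96-well plates receive the compound at five concentrations for 48 hours. Endpoints are linearly interpolated between the surrounding concentrations. GI50 marks 50% less growth. TGI denotes the concentration required for complete inhibition of growth.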 *1 amine or outer side, *2 acyl side, *3 side chain or, on linkers, in order; H or OH if unused. Where a SMILES comes first, the peptide text is derived from it. [ ]: non-standard residue; d: D form. ξ: configuration not given here. X21 = CC[C@@H](C)C(N[*:1])C(=O)[*:2]; ξR = N=C(N)NCCCC(N)C(=O)O; ξI = CCC(C)C(N)C(=O)O; ξL = CC(C)CC(N)C(=O)O; ξK = NCCCCC(N)C(=O)O; ξV = CC(C)C(N)C(=O)O; ξA = CC(N)C(=O)O

Assays:
Test in all cases: NCI anticancer screen, dose series, 48 h
MDA-MB-435 = tested on: MDA-MB-435
DLD-1 colon = tested on: DLD-1 colon
MDA-N = tested on: MDA-N
SNB-78 CNS = tested on: SNB-78 CNS
HOP-18 NSCLC = tested on: HOP-18 NSCLC
M19-MEL melanoma = tested on: M19-MEL melanoma
DMS 114 small cell lung = tested on: DMS 114 small cell lung
LXFL 529 NSCLC = tested on: LXFL 529 NSCLC
RXF-631 renal = tested on: RXF-631 renal

Compound	GI50 (MDA-MB-435)	TGI (MDA-MB-435)	TGI (DLD-1 colon)	TGI (MDA-N)	TGI (SNB-78 CNS)	TGI (HOP-18 NSCLC)	TGI (M19-MEL melanoma)	TGI (DMS 114 small cell lung)	TGI (LXFL 529 NSCLC)	TGI (RXF-631 renal)
CCCN(CCSSCCNc1nc(N(C)O)nc(N(C)O)n1)c1nc(N(C)O)nc(N(C)O)n1	4.91 µM	> 100 µM	–	–	–	–	–	–	–	–
CS(=O)(=O)OCCN(CCOS(C)(=O)=O)c1ccc(C=O)cc1	–	24.6 µM	> 84 µM	27.2 µM	> 100 µM	48.8 µM	30.2 µM	28.2 µM	47.4 µM	–
COc1cc(OC)c(C(=O)/C=C/c2cccc(OC(C)=O)c2)cc1CC=C(C)C	5.67 µM	31.1 µM	–	–	–	–	–	–	–	–
C=CC1=C(C)C2=NC1=CC1=NC(=CC3=C(C)C4=C(O)C(C(=O)OC)C(=C5NC(=C2)C(C)C5CCC(=O)OC)C4=N3)C(CC)=C1C (stereo unspecified)	–	> 100 µM	–	> 100 µM	–	–	–	–	–	–
COc1ccc(-c2csc(NC(=O)c3cc(O)c(O)c(O)c3)n2)cc1	8.69 µM	> 33.3 µM	–	–	–	–	–	–	–	–
OCc1ccc(N(CCN2CCCC2)Cc2ccc(F)cc2)cc1Cl	15.9 µM	32.8 µM	–	–	–	–	–	–	–	–
COC(=O)C1C(OCc2ccccc2)C2CCC1(OC)C=C2C (stereo unspecified)	–	–	> 100 µM	–	> 100 µM	> 100 µM	> 100 µM	> 100 µM	> 100 µM	–
Cc1ccc(Oc2ccc([N+](=O)[O-])cc2[N+](=O)[O-])c(C)c1	–	–	> 100 µM	–	> 100 µM	–	> 100 µM	> 100 µM	> 100 µM	> 100 µM
O=c1c2cccnc2ncn1CCN1CCCC1	–	–	> 100 µM	–	> 100 µM	–	> 100 µM	> 100 µM	> 100 µM	–
O=c1c2ccccc2nc(-c2cccc(Cl)c2)n1NCC1(O)OCC(O)C(O)C1O (stereo unspecified)	–	–	–	–	> 100 µM	–	> 100 µM	> 100 µM	> 100 µM	> 100 µM
O=C1CCS/C(=N\S(=O)(=O)c2ccc(N3N=C4c5ccccc5CC4C3c3cccs3)cc2)N1C(=O)c1ccccc1 (stereo unspecified)	22.7 µM	53.4 µM	–	–	–	–	–	–	–	–
C=C1C(=O)OC2CC(C)C3C=CC(=O)C3CC12 (stereo unspecified)	–	12.4 µM	–	5.73 µM	19.2 µM	16.9 µM	9.19 µM	6.22 µM	2.67 µM	13.7 µM
COc1ccc(-c2c(N)[n+]([O-])c3ccccc3[n+]2[O-])cc1OC	–	–	> 100 µM	–	> 100 µM	> 100 µM	> 100 µM	> 100 µM	> 100 µM	> 100 µM
CCC(C(=O)c1ccccc1)C(CCCC(=O)Nc1c(C)cccc1C)N=O (stereo unspecified)	–	–	> 100 µM	–	> 100 µM	> 100 µM	> 100 µM	–	> 100 µM	> 100 µM
C=C1C(=O)O[C@H]2[C@H]1CC/C(Cn1cc(-c3cc(C)c(C)cc3C)nn1)=C\CC[C@@]1(C)O[C@@H]21	1.41 µM	3.76 µM	–	–	–	–	–	–	–	–
NC(=O)c1ccc2nc3c(n2c1)C(=O)C(=O)c1ccccc1-3	0.186 µM	0.336 µM	–	–	–	–	–	–	–	–
Cc1c2c(cc3c(=O)ccn(CCN(C)C)c13)c(=O)ccn2CCN(C)C	–	–	28.7 µM	–	> 100 µM	58.6 µM	30.2 µM	30.1 µM	19.8 µM	–

Compound	GI50 (MDA-MB-435)	TGI (MDA-MB-435)	TGI (DLD-1 colon)	TGI (MDA-N)	TGI (SNB-78 CNS)	TGI (HOP-18 NSCLC)	TGI (M19-MEL melanoma)	TGI (DMS 114 small cell lung)	TGI (LXFL 529 NSCLC)	TGI (RXF-631 renal)
COc1ccc(OC)c2c(=S)c3ccccc3[nH]c12	–	> 100 µM	> 100 µM	> 100 µM	–	–	> 100 µM	> 100 µM	> 100 µM	> 100 µM
CCC(C)C1NC(=O)C(CC(C)C)NC(=O)C(C)NC(=O)C(C(C)C)NC(=O)C(CCCCN)NC(=O)C(CC(C)C)NC(=O)C(C(C)C)NC(=O)[C@H](C)NC(=O)C(C(C)CC)NC(=O)C(CCCN=C(N)N)NC(=O)C(CCCCN)NC(=O)C(CCCN=C(N)N)NC(=O)C(CCCCN)NC(=O)C([C@H](C)CC)NC(=O)C(CCCCN)NC1=O (stereo partly specified) (cyclo(A[ξV][ξL][ξK][ξV][ξA][ξL][ξI][ξK][X21][ξK][ξR][ξK][ξR][ξI]))	1.51 µM	3.33 µM	–	–	–	–	–	–	–	–
Nc1ncnc2c1cnn2Cc1ccc(Cl)cc1	–	> 100 µM	–	> 100 µM	–	–	–	–	–	–
O=C(Nc1cccc(-n2cc(-c3ccncc3)c(-c3ccc(O)c(Cl)c3)n2)c1)Nc1cccc(C(F)(F)F)c1	1.82 µM	4.65 µM	–	–	–	–	–	–	–	–
CC(C)Nc1ncc2cc(Oc3ccc(F)cc3F)c(=O)n(C)c2n1	> 25 µM	> 25 µM	–	–	–	–	–	–	–	–
CCOC(=O)Nc1nc2c(C)cccc2s1	48.9 µM	> 100 µM	–	–	–	–	–	–	–	–
CN(C)CCCn1c2nc(=O)[nH]c(=O)c-2nc2cc(Cl)c(Cl)cc21	2.14 µM	5.2 µM	–	–	–	–	–	–	–	–
Cn1cnc([N+](=O)[O-])c1Sc1nnnn1-c1ccccc1	–	–	22.1 µM	–	34.2 µM	8.26 µM	24.4 µM	33 µM	15.4 µM	30.6 µM
CCOC(=O)c1cc(C(=O)c2cc(OC)c(OC)c(OC)c2)n2ccccc12	< 0.0182 µM	0.205 µM	–	–	–	–	–	–	–	–
NC(CC1=CCC=CC1)C(=O)O (stereo unspecified)	–	> 100 µM	–	> 100 µM	–	–	–	–	–	–
Cc1cccc(C)c1NC(=O)CCc1n[nH]c(=S)o1	–	–	> 100 µM	–	> 100 µM	> 100 µM	> 100 µM	> 100 µM	> 100 µM	–
CCNCCCn1c2c(c3ccc([N+](=O)[O-])cc3c1=O)C(=O)c1cc(OC)cnc1-2	0.133 µM	0.744 µM	–	–	–	–	–	–	–	–
O=C(NCc1ccncc1)C1COc2cc(-c3cc(=O)c4ccccc4o3)ccc2O1 (stereo unspecified)	–	–	> 100 µM	–	> 100 µM	–	> 100 µM	–	> 100 µM	–
Cc1cc(=O)oc2cc(OS(C)(=O)=O)ccc12	–	> 100 µM	–	> 100 µM	–	–	–	–	–	–
NNC(=O)/C(NC(=O)c1ccccc1)=C(\N)c1ccc(Cl)cc1	–	–	> 100 µM	–	> 100 µM	> 100 µM	> 100 µM	> 100 µM	> 100 µM	–
C=C1C(=O)O[C@H]2[C@H]1CC/C(COC(=O)c1ccccc1)=C\CC[C@@]1(C)O[C@@H]21	1.34 µM	3.24 µM	–	–	–	–	–	–	–	–
COc1cc2c(cn1)[nH]c1ccccc12	–	–	> 100 µM	–	> 100 µM	> 100 µM	–	> 100 µM	> 100 µM	> 100 µM
